Test results as given in ChEMBL document CHEMBL1139978, “Synthesis and radiopharmacological characterization of [11C]AL-438 as a nonsteroidal ligand for imaging brain glucocorticoid receptors” (Bioorg Med Chem Lett, 2007).

Assays:
[1] = test system: Spleen; assay: Biodistribution in corticosterone pretreated Wistar rat spleen at 20 MBq, iv after 60 mins; format: ADME, organism-based; conditions: in vivo, 1 h
[2] = test system: Pituitary gland; assay: Biodistribution in Wistar rat pituitary at 20 MBq, iv after 5 mins; format: ADME, organism-based; conditions: in vivo
[3] = test system: Rattus norvegicus; assay: Biodistribution in corticosterone pretreated Wistar rat testis at 20 MBq, iv after 60 mins; format: ADME, organism-based; conditions: in vivo, 1 h
[4] = test system: Lung; assay: Biodistribution in Wistar rat lung at 20 MBq, iv after 60 mins; format: ADME, organism-based; conditions: in vivo, 1 h
[5] = test system: Lung; assay: Biodistribution in corticosterone pretreated Wistar rat lung at 20 MBq, iv after 60 mins; format: ADME, organism-based; conditions: in vivo, 1 h
[6] = test system: Heart; assay: Biodistribution in corticosterone pretreated Wistar rat heart at 20 MBq, iv after 5 mins; format: ADME, organism-based; conditions: in vivo
[7] = test system: Blood; assay: Biodistribution in Wistar rat blood at 20 MBq, iv after 60 mins; format: ADME, organism-based; conditions: in vivo, 1 h
[8] = test system: Blood; assay: Biodistribution in corticosterone pretreated Wistar rat blood at 20 MBq, iv after 5 mins; format: ADME, organism-based; conditions: in vivo
[9] = test system: Pituitary gland; assay: Biodistribution in corticosterone pretreated Wistar rat pituitary at 20 MBq, iv after 5 mins; format: ADME, organism-based; conditions: in vivo
[10] = test system: Heart; assay: Biodistribution in corticosterone pretreated Wistar rat heart at 20 MBq, iv after 60 mins; format: ADME, organism-based; conditions: in vivo, 1 h
[11] = test system: Pancreas; assay: Biodistribution in corticosterone pretreated Wistar rat pancreas at 20 MBq, iv after 5 mins; format: ADME, organism-based; conditions: in vivo
[12] = test system: Spleen; assay: Biodistribution in corticosterone pretreated Wistar rat spleen at 20 MBq, iv after 5 mins; format: ADME, organism-based; conditions: in vivo
[13] = test system: Muscle tissue; assay: Biodistribution in corticosterone pretreated Wistar rat muscle at 20 MBq, iv after 5 mins; format: ADME, organism-based; conditions: in vivo
[14] = test system: Femur; assay: Biodistribution in Wistar rat femur at 20 MBq, iv after 5 mins; format: ADME, organism-based; conditions: in vivo
[15] = test system: Lung; assay: Biodistribution in Wistar rat lung at 20 MBq, iv after 5 mins; format: ADME, organism-based; conditions: in vivo
[16] = test system: Harderian gland; assay: Biodistribution in Wistar rat harderian gland at 20 MBq, iv after 5 mins; format: ADME, organism-based; conditions: in vivo
[17] = test system: Cerebellum; assay: Biodistribution in Wistar rat cerebellum at 20 MBq, iv after 60 mins; format: ADME, organism-based; conditions: in vivo, 1 h
[18] = test system: Hippocampus; assay: Biodistribution in corticosterone pretreated Wistar rat hippocampus at 20 MBq, iv after 60 mins; format: ADME, organism-based; conditions: in vivo, 1 h
[19] = test system: Hippocampus; assay: Biodistribution in Wistar rat hippocampus at 20 MBq, iv after 5 mins; format: ADME, organism-based; conditions: in vivo
[20] = test system: Femur; assay: Biodistribution in corticosterone pretreated Wistar rat femur at 20 MBq, iv after 5 mins; format: ADME, organism-based; conditions: in vivo
[21] = test system: Hippocampus; assay: Biodistribution in Wistar rat hippocampus at 20 MBq, iv after 60 mins; format: ADME, organism-based; conditions: in vivo, 1 h
[22] = test system: Hippocampus; assay: Biodistribution in corticosterone pretreated Wistar rat hippocampus at 20 MBq, iv after 5 mins; format: ADME, organism-based; conditions: in vivo
[23] = test system: Pancreas; assay: Biodistribution in Wistar rat pancreas at 20 MBq, iv after 60 mins; format: ADME, organism-based; conditions: in vivo, 1 h
[24] = test system: Adrenal; assay: Biodistribution in corticosterone pretreated Wistar rat adrenal at 20 MBq, iv after 5 mins; format: ADME, organism-based, Adrenal tissue; conditions: in vivo
[25] = test system: Kidney; assay: Biodistribution in Wistar rat kidney at 20 MBq, iv after 5 mins; format: ADME, organism-based; conditions: in vivo
[26] = test system: Liver; assay: Biodistribution in corticosterone pretreated Wistar rat liver at 20 MBq, iv after 5 mins; format: ADME, organism-based; conditions: in vivo
[27] = test system: Heart; assay: Biodistribution in Wistar rat heart at 20 MBq, iv after 60 mins; format: ADME, organism-based; conditions: in vivo, 1 h
[28] = test system: Rattus norvegicus; assay: Biodistribution in Wistar rat rest of brain at 20 MBq, iv after 60 mins; format: ADME, organism-based; conditions: in vivo, 1 h
[29] = test system: Liver; assay: Biodistribution in Wistar rat liver at 20 MBq, iv after 5 mins; format: ADME, organism-based; conditions: in vivo
[30] = test system: Rattus norvegicus; assay: Biodistribution in Wistar rat rest of brain at 20 MBq, iv after 5 mins; format: ADME, organism-based; conditions: in vivo
[31] = test system: Harderian gland; assay: Biodistribution in corticosterone pretreated Wistar rat harderian gland at 20 MBq, iv after 5 mins; format: ADME, organism-based; conditions: in vivo
[32] = test system: Harderian gland; assay: Biodistribution in corticosterone pretreated Wistar rat harderian gland at 20 MBq, iv after 60 mins; format: ADME, organism-based; conditions: in vivo, 1 h
[33] = test system: Rattus norvegicus; assay: Biodistribution in corticosterone pretreated Wistar rat rest of brain at 20 MBq, iv after 5 mins; format: ADME, organism-based; conditions: in vivo
[34] = test system: Liver; assay: Biodistribution in Wistar rat liver at 20 MBq, iv after 60 mins; format: ADME, organism-based; conditions: in vivo, 1 h
[35] = test system: Cortex; assay: Biodistribution in Wistar rat cortex at 20 MBq, iv after 5 mins; format: ADME, organism-based; conditions: in vivo
[36] = test system: Rattus norvegicus; assay: Biodistribution in Wistar rat brown fat at 20 MBq, iv after 60 mins; format: ADME, organism-based, Brown adipose tissue; conditions: in vivo, 1 h
[37] = test system: Femur; assay: Biodistribution in corticosterone pretreated Wistar rat femur at 20 MBq, iv after 60 mins; format: ADME, organism-based; conditions: in vivo, 1 h
[38] = test system: Cerebellum; assay: Biodistribution in corticosterone pretreated Wistar rat cerebellum at 20 MBq, iv after 60 mins; format: ADME, organism-based; conditions: in vivo, 1 h
[39] = test system: Spleen; assay: Biodistribution in Wistar rat spleen at 20 MBq, iv after 60 mins; format: ADME, organism-based; conditions: in vivo, 1 h
[40] = test system: Lung; assay: Biodistribution in corticosterone pretreated Wistar rat lung at 20 MBq, iv after 5 mins; format: ADME, organism-based; conditions: in vivo

C=CCC1Oc2cccc(O[11CH3])c2-c2ccc3c(c21)C(C)=CC(C)(C)N3 (stereo not given)
Drug uptake [1]: 0.91 % ID/g
Drug uptake [2]: 2.49 % ID/g
Drug uptake [3]: 0.5 % ID/g
Drug uptake [4]: 1.11 % ID/g
Drug uptake [5]: 1.03 % ID/g
Drug uptake [6]: 1.91 % ID/g
Drug uptake [7]: 0.6 % ID/g
Drug uptake [8]: 0.52 % ID/g
Drug uptake [9]: 2.45 % ID/g
Drug uptake [10]: 0.67 % ID/g
Drug uptake [11]: 2.81 % ID/g
Drug uptake [12]: 1.21 % ID/g
Drug uptake [13]: 0.9 % ID/g
Drug uptake [14]: 0.9 % ID/g
Drug uptake [15]: 1.44 % ID/g
Drug uptake [16]: 1.68 % ID/g
Drug uptake [17]: 0.53 % ID/g
Drug uptake [18]: 0.68 % ID/g
Drug uptake [19]: 1.3 % ID/g
Drug uptake [20]: 0.85 % ID/g
Drug uptake [21]: 0.61 % ID/g
Drug uptake [22]: 1.35 % ID/g
Drug uptake [23]: 1.99 % ID/g
Drug uptake [24]: 8.68 % ID/g
Drug uptake [25]: 1.72 % ID/g
Drug uptake [26]: 3.04 % ID/g
Drug uptake [27]: 0.75 % ID/g
Drug uptake [28]: 0.56 % ID/g
Drug uptake [29]: 2.65 % ID/g
Drug uptake [30]: 1.52 % ID/g
Drug uptake [31]: 1.65 % ID/g
Drug uptake [32]: 2.87 % ID/g
Drug uptake [33]: 1.46 % ID/g
Drug uptake [34]: 2.54 % ID/g
Drug uptake [35]: 1.67 % ID/g
Drug uptake [36]: 8.54 % ID/g
Drug uptake [37]: 0.7 % ID/g
Drug uptake [38]: 0.64 % ID/g
Drug uptake [39]: 1.06 % ID/g
Drug uptake [40]: 1.44 % ID/g
